For assay [1], the system named is multipotent mesenchymal cells such as M2-10B4 (M2) marrow stromal cells and C3H10T1/2 embryonic fibroblasts. Conditions: cited from earlier work.
Assay [2] relates to rat two-level spine model. In words: Posterolateral spinal fusion in a rat two-level spine model (radiographs, manual palpation). Conditions: collagen/ceramic matrix wetted with sterile water, bilateral in posterolateral space, 4-week and 8-week timepoints. Type of assay: in vivo. The procedure: FIG. 6 illustrates uses of a formulation of malleable implants having 20 mg of Oxy133 on each side of the implant, in accordance with the malleable implants described herein. […] A dry composition of a matrix containing Oxy133, collagen and ceramic as described herein was prepared and wetted with sterile water to be implanted in rat spines as shown in FIG. 6. The wetted matrix was cut in half with a razor blade to yield two halves. The two implants were molded into cylindrical shapes prior to insertion and were positioned bilaterally in the posterolateral space of each test subject. Each implant contained 20 mg Oxy133. Radiographs were taken roughly 10 minutes after the procedure, 4 weeks after the procedure, and 8 weeks after the procedure. […] Fusion was tested at 8-week sacrifice by manual palpation. […] A dry composition of a matrix containing Oxy133, collagen and ceramic as described herein was prepared and wetted with sterile water to be implanted in rat spines as shown in FIG. 6. The wetted matrix was cut in half with a razor blade to yield two halves. The two implants were molded into cylindrical shapes prior to insertion and were positioned bilaterally in the posterolateral space of each test subject. Each implant contained 125 mg Oxy133. Radiographs were taken roughly 10 minutes after the procedure, 4 weeks after the procedure, and 8 weeks after the procedure. […]

These results are taken from patent US9878070B2, “Malleable implants including an oxysterol and methods of use” (Warsaw Orthopedic, Inc., priority 2015, dated 2018).

“Also recorded” adds a separate entry of the source.

Take `CC(C)CCC[C@](C)(O)[C@H]1CC[C@H]2[C@@H]3CC=C4C[C@@H](O)CC[C@]4(C)[C@H]3CC[C@@]21C` [20(S)-hydroxycholesterol]: the osteogenic differentiation result in assay [1] is recorded as “induce osteogenic differentiation”.

For the molecule `CC(C)CC[C@@H](O)[C@@H](C)[C@H]1CC[C@H]2[C@@H]3CC=C4C[C@@H](O)CC[C@]4(C)[C@H]3CC[C@]12C` [22(R)-hydroxycholesterol], in assay [1], the osteogenic differentiation entry was “induce osteogenic differentiation”.

As to `CC(C)CC[C@H](O)[C@@H](C)[C@H]1CC[C@H]2[C@@H]3CC=C4C[C@@H](O)CC[C@]4(C)[C@H]3CC[C@]12C` [22(S)-hydroxycholesterol], the osteogenic differentiation entry in assay [1] is on record as “induce osteogenic differentiation”.

On to `CCCCCC[C@](C)(O)[C@H]1CC[C@H]2[C@@H]3C[C@H](O)[C@H]4C[C@@H](O)CC[C@]4(C)[C@H]3CC[C@@]21C` [Oxy133, (3S,5S,6S,8R,9S,10R,13S,14S,17S) 17-((S)-2-hydroxyoctan-2-yl)-10,13-dimethylhexadecahydro-1H-cyclopenta[a]phenanthrene-3,6-diol], for which the “bridging bone across the transverse processes of L3-L5 / bone growth (radiographs)” value in assay [2] (20 mg Oxy133 per implant) and in assay [2] (125 mg Oxy133 per implant) was “promoted bridging bone; also recorded: Bone growth in rat test subjects can be seen” in each case.
